Patent US11957652B2, “Compositions comprising citrulline and leucine and their use in the treatment of diabetes and metabolic syndrome” (SOCIÉTÉ DES PRODUITS NESTLÉ S.A., priority 2013, dated 2024)

Tested on: rats fed a high fat diet
Experiment: Fasting glucose and insulin plasma levels in rats fed a high fat diet
Assay type: in vivo, rat
Settings: rats on high fat diet, 1 g/kg daily of citrulline or leucine, or 1.0 g/kg leucine and 1.0 g/kg citrulline; for fasting plasma glucose levels (glycemia): compared to high fat diet alone (FIG. 1); for fasting insulin plasma levels (insulinemia): compared to high fat diet alone and to chow-fed healthy rats (FIG. 2)
Protocol: Compositions comprising citrulline, leucine, or […] were tested for their effect on fasting glucose levels and insulin plasma levels. Briefly, rats were split into six groups and fed either chow, a high fat diet, a high fat diet with 1 g/kg leucine daily, a high fat diet with 0.2 g/kg citrulline, a high fat diet with 1 g/kg citrulline daily or a high fat diet with a composition comprising 1.0 g/kg leucine and 1.0 g/kg citrulline.

Structure (SMILES)	fasting plasma glucose levels (glycemia)	fasting insulin plasma levels (insulinemia)
NC(=O)NCCC[C@H](N)C(=O)O [citrulline]	decrease	decrease
CC(C)C[C@H](N)C(=O)O [leucine]	decrease	decrease
